Source: publication PMC12703733, “Probing Guanidino Pendant or Bridged Groups in Cyclic Antimicrobial Peptides Derived from Temporin L: A Strategy to Improve Efficacy against Gram-Negative Bacteria” (Journal of Medicinal Chemistry, 2025)
Values after ≈ are worked out from the molar mass of the structure shown. Bridge positions count the residues as written; N and C are the ends. Square brackets hold non-standard residues; d marks the D form. Ends that are not written are not given here. Peptide text beside a SMILES is read from it. Phe(4-guanidino) = N=C(N)Nc1ccc(C[C@H](N)C(=O)O)cc1

What was measured:
[1] = test system: methicillin-resistant Staphylococcus aureus (MRSA); conditions: MRSA strain; ref Verma et al.; cited from earlier work
S. agalactiae ATCC 27591 = assay: microbe, parasite or virus in culture; assay type: cell-based; conditions: ATCC 27591
Method in brief: (§1)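 MH broth, inoculum 2 × 10^6 cell/mL from mid-log culture; 37 °C incubation; MIC = three identical readings, four independent expts.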

B. megaterium BM11 = assay: microbe, parasite or virus in culture; assay type: cell-based; conditions: BM11
Method in brief: as §1

E. coli ATCC 25922 = assay: microbe, parasite or virus in culture; assay type: cell-based; conditions: ATCC 25922
Method in brief: as §1

P. aeruginosa PAO1 = assay: microbe, parasite or virus in culture; assay type: cell-based; conditions: PAO1
Method in brief: as §1

S. aureus ATCC 25923 = assay: microbe, parasite or virus in culture; assay type: cell-based; conditions: ATCC 25923
Method in brief: as §1

E. faecalis ATCC 29212 = assay: microbe, parasite or virus in culture; assay type: cell-based; conditions: ATCC 29212
Method in brief: as §1

A. baumannii ATCC 19606 = assay: microbe, parasite or virus in culture; assay type: cell-based; conditions: ATCC 19606
Method in brief: as §1

E. coli D21 = assay: microbe, parasite or virus in culture; assay type: cell-based; conditions: D21
Method in brief: as §1

[2] = test system: S. epidermidis ATCC 12228; assay: microbe, parasite or virus in culture; assay type: cell-based; conditions: ATCC 12228
Method in brief: as §1

[3] = Circular dichroism in water (BeStSel); assay type: physicochemical; conditions: predicted from CD spectra in H2O using BeStSel
Protocol: The secondary structure of each peptide was studied in solution and in small unilamellar vesicles (SUVs) mimicking Gram-positive and Gram-negative membranes performing CD analysis. The CD spectrum for each peptide in solution was recorded at 150 μM, using the quartz cells of 0.1 cm path length with a Jasco J-1500 CD Spectrometer at 25 °C. SUVs at the concentration of 150 μM (P/L = 1) and […] (P/L = 0.4) were prepared as reported: the lipid film was hydrated with water for 1h and then sonicated for 30 min. CD spectra were recorded at the peptide/lipid ratio of 1:1 both in the presence with SUVs mimicking Gram-positive and Gram-negative membranes. CD spectra were recorded at 25 °C on a in a 0.1 cm quartz cell using three consecutive scans from 260 to 190 nm, 3 nm bandwidth, a time constant of 16 s, and a scan rate of 10 nm/min.

circular dichroism = conditions: water; pH ns; 25 °C; 150 uM
[4] = test system: human keratinocytes (HaCaT cells); assay type: cell-based; conditions: human, 24 h
Method in brief: (§2)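 Cells were plated at about 4 × 10^4/well in 2% FBS, then exposed to peptide at 100–3.12 μM in serum-free medium for 2 h or 24 h. Viability was measured by MTT reduction (0.5 mg/mL, 4 h, absorbance 570 nm) relative to untreated cells, as the mean ± SEM of three experiments.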

[5] = assay type: cell-based, human; conditions: human
Method in brief: as §2

all bacteria tested = assay: MIC panel, geometric mean over all strains; assay type: cell-based; conditions: geometric mean of the MICs against all bacteria tested
Protocol: (§3) The antimicrobial efficacy of the TLcyc analogues was assessed against a representative panel of Gram-positive and Gram-negative bacterial strains, by determining their minimal inhibitory concentrations (MIC), as summarized in Table . To provide an integrated measure of antimicrobial potency, we calculated the geometric mean (GM) of MIC values across all strains (GMall), as well as separately for Gram-positive (GMGram+) and Gram-negative (GMGram–) bacteria.
(§4) Bacterial strains used in this study were the Gram-positive S. aureus ATCC 25923, S. epidermidis ATCC 12228, B. megaterium BM11, S. agalactiae ATCC 27591, E. faecalis ATCC 29212 and the Gram-negative E. coli ATCC 25922, P. aeruginosa ATCC 27853, A. baumannii ATCC 19606, E. coli D21 and P. aeruginosa PAO1. […] Bacterial cells in the mid log phase were diluted in Muller Hinton (MH) at a concentration of 2 × 10^6 cell/mL. Aliquots of 50 μL of this bacterial suspension were added to 50 μL of MH containing serial 2-fold dilutions of the peptides (from 100 to 0.19 μM) in the wells a 96-well plate. Ciprofloxacin was used as antibiotic control. The plate was then incubated at 37 °C. MICs were obtained from three identical readings of four independent experiments.

[6] = test system: Gram-positive bacteria tested; assay: MIC panel, Gram-positive strains (geometric mean, range); assay type: cell-based; conditions: geometric mean of the MICs against Gram-positive bacteria tested
Protocol: as §3, §4

[7] = test system: Gram-negative bacteria tested; assay: MIC panel, Gram-negative strains (geometric mean); assay type: cell-based; conditions: geometric mean of the MICs against Gram-negative bacteria tested
Protocol: as §3, §4

[8] = molecular target: the molecule itself; assay: Thioflavin T fluorescence; LUVs of DOPE:DOPG:CL (65:23:12, mol/mol/mol) mimicking the Gram-negative membrane, 100 uM lipid, titrated with 5-50 uM peptide; 100 mM NaCl, 10 mM Tris-HCl, 25 uM ThT, pH 7.4; peptide oligomerisation within the vesicles

In the case of “FVQWFSKFLGRIL [TL, 13-mer linear antimicrobial peptide from Rana temporaria]”, the MIC [1] is given as 6.25 µM.

`CC[C@H](C)[C@H](NC(=O)[C@H](CCCNC(=N)N)NC(=O)[C@H]1CCC(=O)NCCCC[C@H](NC(=O)[C@H](Cc2ccccc2)NC(=O)[C@H](Cc2c[nH]c3ccccc23)NC(=O)[C@@H]2CCCN2C(=O)[C@@H](NC(=O)[C@@H](N)Cc2ccccc2)C(C)C)C(=O)N[C@@H](CCCNC(=N)N)C(=O)N[C@@H](Cc2ccccc2)C(=O)N[C@H](CC(C)C)C(=O)N1)C(=O)N[C@@H](CC(C)C)C(N)=O` [Peptide 9, FVPWF[KRFle]RIL] (H-FVPWFKRF[dL][dE]RIL-NH2; lactam 6-10) gave an MIC (S. agalactiae ATCC 27591) of 3.12 µM (≈ 5.4 µg/mL), an MIC (B. megaterium BM11) of 1.56 µM (≈ 2.7 µg/mL) and an MIC (E. coli ATCC 25922) of 6.25 µM (≈ 10.8 µg/mL). The MIC (P. aeruginosa PAO1) was 50 µM (≈ 86.6 µg/mL), the MIC (S. aureus ATCC 25923) was 6.25 µM (≈ 10.8 µg/mL) and the MIC (E. faecalis ATCC 29212) was 12.5 µM (≈ 21.7 µg/mL). For the same molecule, the MIC (A. baumannii ATCC 19606) was 3.12 µM (≈ 5.4 µg/mL), the MIC (E. coli D21) was 6.25 µM (≈ 10.8 µg/mL) and the MIC [2] was 3.12 µM (≈ 5.4 µg/mL). The “Content in water (%) random” value [3] was 53%, the “Content in water (%) α-helix” value [3] was 11% and the “Content in water (%) β-strand” value [3] was 36%. The helicity (circular dichroism) was 11%, the CC50 [4] was 54.3 µM and the CC50 at 24 h ([5]; CC50) was greater than 50 µM. The viability at 2 h, 3.12 µM ([5]; Cell viability (%)) was 106%, the viability at 2 h, 6.25 µM ([5]; Cell viability (%)) was 106% and the viability at 2 h, 12.5 µM ([5]; Cell viability (%)) was 98%. For the same molecule, the viability at 2 h, 25 µM ([5]; Cell viability (%)) was 94%, the viability at 2 h, 50 µM ([5]; Cell viability (%)) was 74% and the viability at 2 h, 100 µM ([5]; Cell viability (%)) was 22%. It also gave a viability at 24 h, 3.12 µM ([5]; Cell viability (%)) of 115 ± 23%, a viability at 24 h, 6.25 µM ([5]; Cell viability (%)) of 109 ± 24% and a viability at 24 h, 12.5 µM ([5]; Cell viability (%)) of 112 ± 20%. For the same molecule, the viability at 24 h, 25 µM ([5]; Cell viability (%)) was 120 ± 13%, the viability at 24 h, 50 µM ([5]; Cell viability (%)) was 82 ± 10% and the viability at 24 h, 100 µM ([5]; Cell viability (%)) was 4 ± 2%. The “geometric mean GMall” value (all bacteria tested) was 7.67 µM, the “geometric mean GMGram+” value [6] was 4.11 µM and the “geometric mean GMGram–” value [7] was 14.32 µM.

B1: peptide 6 (cyclic Temporin L analogue with a guanidino pendant on the para position of Phe1) (peptide, UniProt P57104 1-13, looked up)
peptide: [Phe(4-guanidino)]VPWFKKF[dL][dE]RIL-NH2
modifications: lactam 6-10; N-terminus assumed
SMILES: CC[C@H](C)[C@H](NC(=O)[C@H](CCCNC(=N)N)NC(=O)[C@H]1CCC(=O)NCCCC[C@H](NC(=O)[C@H](Cc2ccccc2)NC(=O)[C@H](Cc2c[nH]c3ccccc23)NC(=O)[C@@H]2CCCN2C(=O)[C@@H](NC(=O)[C@@H](N)Cc2ccc(NC(=N)N)cc2)C(C)C)C(=O)N[C@@H](CCCCN)C(=O)N[C@@H](Cc2ccccc2)C(=O)N[C@H](CC(C)C)C(=O)N1)C(=O)N[C@@H](CC(C)C)C(N)=O
notes: peptide 6 is peptide 2 with (p-guanidino)Phe in place of Phe1; also called compound 6; source: synthetic peptide (Fmoc-based US-SPPS, RP-HPLC purified, >97%)
With B1 the “% aggregation at P/L 0.5” value [8] was roughly 40%.
